According to US10259847B2, “Beta-hairpin peptidomimetics” (POLYPHOR AG, priority 2014, dated 2019):
Where a SMILES comes first, the peptide text is derived from it. Bridges are numbered along the chain shown (N, C = ends). [ ]: non-standard residue; d: D form. Tle = CC(C)(C)[C@H](N)C(=O)O; dDab = NCC[C@@H](N)C(=O)O; hCys = N[C@@H](CCS)C(=O)O; Orn = NCCC[C@H](N)C(=O)O; Dab = NCC[C@H](N)C(=O)O; dAze = O=C(O)[C@H]1CCN1; Dap = NC[C@H](N)C(=O)O

What was measured:
Format in all cases: cell-based
[1] = test system: Acinetobacter baumannii DSM 30008; details: DSM 30008
Experimental: (§1) Stock solutions were kept at +4° C., light protected.
(§2) The selective antimicrobial activities of the peptides were determined in 96-well plates (Greiner, polystyrene) by the standard NCCLS broth microdilution method (National Committee for Clinical Laboratory Standards 1993. Methods for dilution antimicrobial susceptibility tests for bacteria that grow aerobically, 3rd ed. Approved standard M7-A6; National Committee for Clinical laboratory standards, Wayne, Pa.) with slight modifications. Inocula of the microorganisms were diluted into Mueller-Hinton II (MH, cation adjusted) broth and compared with a 0.5 McFarland standard to give appr. 10^6 colony forming units (CFU)/mL. Aliquots (90 μl) of inoculate were added to 10 μl of MH broth+P-80 (Polysorbate 80, 0.002% final concentration) containing the peptide in serial two-fold dilutions. The following microorganisms were used to determine antibiotic selectivity of the peptides: Escherichia coli ATCC 25922, Klebsiella pneumoniae ATCC 13883 and Acinetobacter baumannii DSM 30008.

[2] = test system: Escherichia coli ATCC 25922; details: ATCC 25922
Experimental: as §1, §2

[3] = test system: Klebsiella pneumoniae ATCC 13883; details: ATCC 13883
Experimental: as §1, §2

[4] = test system: human red blood cells (hRBC); assay: Hemolysis of human red blood cells; details: red cells of human, 1 h, 100
Experimental: as §1
Percent hemolysis was calculated as follows: (OD540peptide/OD540H2O)×100%.

SMILES	Acinetobacter baumannii DSM 30008 MIC [1] [µg/mL]	Escherichia coli ATCC 25922 MIC [2] [µg/mL]	Klebsiella pneumoniae ATCC 13883 MIC [3] [µg/mL]	Hemolysis at 100 μg/mL [4] [%]
CC(C)[C@@H]1NC(=O)[C@@H]2CCCN2C(=O)[C@H]2CCN2C(=O)[C@H]([C@@H](C)O)NC(=O)[C@@H]2CC(=O)NCC[C@H](NC1=O)C(=O)N[C@@H](Cc1ccc(O)cc1)C(=O)N[C@@H](CCN)C(=O)N[C@@H](CN)C(=O)N[C@H](CCN)C(=O)N[C@@H](CCN)C(=O)N[C@@H](Cc1c[nH]c3ccccc13)C(=O)N[C@@H](CCN)C(=O)N[C@@H](C(C)(C)C)C(=O)N2 [Example 12, cyclo(-Val-Dab-Tyr-Dab-Dap-^DDab-Dab-Trp-Dab-tBuGly-Asp-Thr-^DAzt-Pro-)] (cyclo(DT[dAze]PV[Dab]Y[Dab][Dap][dDab][Dab]W[Dab][Tle]); lactam 1-6)	1	0.5	0.25	4
CC(C)(C)[C@@H]1NC(=O)[C@H](CCN)NC(=O)[C@H](Cc2c[nH]c3ccccc23)NC(=O)[C@H](CCN)NC(=O)[C@@H](CCN)NC(=O)[C@H](CCCN)NC(=O)[C@H](CCCNC(=N)N)NC(=O)[C@H](Cc2ccc(O)cc2)NC(=O)[C@@H]2CCNC(=O)C[C@H](NC1=O)C(=O)N[C@@H](CO)C(=O)N1CCC[C@@H]1C(=O)N1CCC[C@H]1C(=O)N[C@@H](Cc1ccccc1)C(=O)N2 [Example 13, cyclo(-Phe-Dab-Tyr-Arg-Orn-^DDab-Dab-Trp-Dab-tBuGly-Asp-Ser-^DPro-Pro-)] (HELM PEPTIDE1{F.[Dab].Y.R.[Orn].[NCC[C@@H](N[*:1])C(=O)[*:2]].[Dab].W.[Dab].[CC(C)(C)[C@H](N[*:1])C(=O)[*:2]].D.S.[dP].P}$PEPTIDE1,PEPTIDE1,2:R3-11:R3|PEPTIDE1,PEPTIDE1,1:R1-14:R2$$$V2.0)	1	0.25	0.5	1
CC(C)C[C@@H]1NC(=O)[C@@H]2CCCN2C(=O)[C@H]2CCCN2C(=O)[C@H](CO)NC(=O)[C@@H]2CC(=O)NCCCC[C@H](NC1=O)C(=O)N[C@@H](Cc1ccc(O)cc1)C(=O)N[C@@H](CCN)C(=O)N[C@@H](CCCN)C(=O)N[C@@H](CCN)C(=O)N[C@@H](CCN)C(=O)N[C@@H](Cc1c[nH]c3ccccc13)C(=O)N[C@@H](CCN)C(=O)N[C@@H](C(C)(C)C)C(=O)N2 [Example 33, cyclo(-Leu-Lys-Tyr-Dab-Orn-Dab-Dab-Trp-Dab-tBuGly-Asp-Ser-^DPro-Pro-)] (HELM PEPTIDE1{L.K.Y.[Dab].[Orn].[Dab].[Dab].W.[Dab].[CC(C)(C)[C@H](N[*:1])C(=O)[*:2]].D.S.[dP].P}$PEPTIDE1,PEPTIDE1,2:R3-11:R3|PEPTIDE1,PEPTIDE1,1:R1-14:R2$$$V2.0)	1	1	4	1
C[C@@H]1NC(=O)[C@H](C(C)(C)C)NC(=O)[C@H](CCN)NC(=O)[C@H](Cc2c[nH]c3ccccc23)NC(=O)[C@H](CCN)NC(=O)[C@@H](CCN)NC(=O)[C@H](CCCN)NC(=O)[C@H](CCN)NC(=O)[C@H](Cc2ccc(O)cc2)NC(=O)[C@H](CN)NC(=O)[C@H](Cc2ccccc2)NC(=O)[C@H](Cc2ccc(O)cc2)NC(=O)[C@H]2CCCN2C(=O)[C@H](CO)NC1=O [Example 44, cyclo(-Phe-Dap-Tyr-Dab-Orn-^DDab-Dab-Trp-Dab-tBuGly-Ala-Ser-^DPro-Tyr-)] (cyclo(AS[dP]YF[Dap]Y[Dab][Orn][dDab][Dab]W[Dab][Tle]))	1	0.5	0.25	0
CC(C)C[C@@H]1NC(=O)[C@@H]2CCCN2C(=O)[C@H]2CCCN2C(=O)[C@H](CO)NC(=O)[C@@H]2CCC(=O)NCC[C@H](NC1=O)C(=O)N[C@@H](Cc1ccc(O)cc1)C(=O)N[C@@H](CCN)C(=O)N[C@@H](CCCN)C(=O)N[C@H](CCN)C(=O)N[C@@H](CCN)C(=O)N[C@@H](Cc1c[nH]c3ccccc13)C(=O)N[C@@H](CCN)C(=O)N[C@@H](C(C)(C)C)C(=O)N2 [Example 30, cyclo(-Leu-Dab-Tyr-Dab-Orn-^DDab-Dab-Trp-Dab-tBuGly-Glu-Ser-^DPro-Pro-)] (HELM PEPTIDE1{L.[Dab].Y.[Dab].[Orn].[NCC[C@@H](N[*:1])C(=O)[*:2]].[Dab].W.[Dab].[CC(C)(C)[C@H](N[*:1])C(=O)[*:2]].E.S.[dP].P}$PEPTIDE1,PEPTIDE1,2:R3-11:R3|PEPTIDE1,PEPTIDE1,1:R1-14:R2$$$V2.0)	1	1	2	0.5
CC(C)C[C@@H]1NC(=O)[C@H]2CCCN2C(=O)[C@H](CO)NC(=O)[C@H](C)NC(=O)[C@H](C(C)(C)C)NC(=O)[C@H](CCN)NC(=O)[C@H](Cc2c[nH]c3ccccc23)NC(=O)[C@H](CCN)NC(=O)[C@@H](CCN)NC(=O)[C@H](CCCN)NC(=O)[C@H](CCN)NC(=O)[C@H](Cc2ccc(O)cc2)NC(=O)[C@H](CN)NC(=O)[C@H](Cc2ccccc2)NC1=O [Example 42, cyclo(-Phe-Dap-Tyr-Dab-Orn-^DDab-Dab-Trp-Dab-tBuGly-Ala-Ser-^DPro-Leu-)] (cyclo(AS[dP]LF[Dap]Y[Dab][Orn][dDab][Dab]W[Dab][Tle]))	4	1	1	1
CC(C)[C@@H]1NC(=O)[C@@H]2CCCN2C(=O)[C@H]2CCCN2C(=O)[C@H](CO)NC(=O)[C@@H]2CSSCC[C@H](NC1=O)C(=O)N[C@@H](Cc1ccc(O)cc1)C(=O)N[C@@H](CCN)C(=O)N[C@@H](CN)C(=O)N[C@H](CCN)C(=O)N[C@@H](CCN)C(=O)N[C@@H](Cc1c[nH]c3ccccc13)C(=O)N[C@@H](CCN)C(=O)N[C@@H](C(C)(C)C)C(=O)N2 [Example 39, cyclo(-Val-Hcy-Tyr-Dab-Dap-^DDab-Dab-Trp-Dab-tBuGly-Cys-Ser-^DPro-Pro-)] (cyclo(V[hCys]Y[Dab][Dap][dDab][Dab]W[Dab][Tle]CS[dP]P); disulfide 2-11)	2	1	1	2
CC(C)(C)[C@@H]1NC(=O)[C@H](CCN)NC(=O)[C@H](Cc2c[nH]c3ccccc23)NC(=O)[C@H](CCN)NC(=O)[C@@H](CCN)NC(=O)[C@H](CCN)NC(=O)[C@H](CCN)NC(=O)[C@H](Cc2ccc(O)cc2)NC(=O)[C@@H]2CCNC(=O)C[C@H](NC1=O)C(=O)N[C@@H](CO)C(=O)N1CCC[C@@H]1C(=O)N1CCC[C@H]1C(=O)N[C@@H](Cc1c[nH]c3ccccc13)C(=O)N2 [Example 14, cyclo(-Trp-Dab-Tyr-Dab-Dab-^DDab-Dab-Trp-Dab-tBuGly-Asp-Ser-^DPro-Pro-)] (HELM PEPTIDE1{W.[Dab].Y.[Dab].[Dab].[NCC[C@@H](N[*:1])C(=O)[*:2]].[Dab].W.[Dab].[CC(C)(C)[C@H](N[*:1])C(=O)[*:2]].D.S.[dP].P}$PEPTIDE1,PEPTIDE1,2:R3-11:R3|PEPTIDE1,PEPTIDE1,1:R1-14:R2$$$V2.0)	0.5	0.25	0.25	2
CC(C)(C)[C@@H]1NC(=O)[C@H](CCN)NC(=O)[C@H](Cc2c[nH]c3ccccc23)NC(=O)[C@H](CCN)NC(=O)[C@H](CCN)NC(=O)[C@H](CCN)NC(=O)[C@H](CCN)NC(=O)[C@H](Cc2ccc(O)cc2)NC(=O)[C@@H]2CCNC(=O)C[C@H](NC1=O)C(=O)N[C@@H](CO)C(=O)N1CC[C@@H]1C(=O)N1CCC[C@H]1C(=O)N[C@@H](Cc1c[nH]c3ccccc13)C(=O)N2 [Example 15, cyclo(-Trp-Dab-Tyr-Dab-Dab-Dab-Dab-Trp-Dab-tBuGly-Asp-Ser-^DAzt-Pro-)] (HELM PEPTIDE1{D.S.[O=C([C@H]1CCN1[*:1])[*:2]].P.W.[Dab].Y.[Dab].[Dab].[Dab].[Dab].W.[Dab].[CC(C)(C)[C@H](N[*:1])C(=O)[*:2]]}$PEPTIDE1,PEPTIDE1,1:R3-6:R3|PEPTIDE1,PEPTIDE1,1:R1-14:R2$$$V2.0)	0.5	0.25	0.25	1
CC(C)C[C@@H]1NC(=O)[C@H](CCCN)NC(=O)[C@H]2CCCN2C(=O)[C@H](C(C)C)NC(=O)[C@@H]2CSSC[C@H](NC1=O)C(=O)N[C@@H](Cc1ccc(O)cc1)C(=O)N[C@@H](C)C(=O)N[C@@H](CCCN)C(=O)N[C@H](CCN)C(=O)N[C@@H](CCN)C(=O)N[C@@H](Cc1c[nH]c3ccccc13)C(=O)N[C@@H](C)C(=O)N[C@@H](C(C)C)C(=O)N2 [Example 4, cyclo(-Leu-Cys-Tyr-Ala-Orn-^DDab-Dab-Trp-Ala-Val-Cys-Val-^DPro-Orn-)] (HELM PEPTIDE1{A.[Orn].[NCC[C@@H](N[*:1])C(=O)[*:2]].[Dab].W.A.V.C.V.[dP].[Orn].L.C.Y}$PEPTIDE1,PEPTIDE1,8:R3-13:R3|PEPTIDE1,PEPTIDE1,1:R1-14:R2$$$V2.0)	2	2	4	2.5
